ChEMBL document CHEMBL3044529, “7-Hydroxy-coumarin derivatives: synthesis, characterization and preliminary antimicrobial activities” (2011)
Converted amounts (≈) assume the structure as drawn.

Key:
Assay type in all cases: functional
Salmonella typhimurium = assay: Antimicrobial activity against Salmonella enterica subsp. enterica serovar Typhimurium by macro dilution test
Escherichia coli = assay: Antimicrobial activity against Escherichia coli by macro dilution test
Candida parapsilosis = assay: Antimicrobial activity against Candida parapsilosis by macro dilution test; settings: Lodderomyces parapsilosis
Candida albicans = assay: Antimicrobial activity against Candida albicans by macro dilution test
Pichia kudriavzevii = assay: Antimicrobial activity against Pichia kudriavzevii by macro dilution test
Staphylococcus aureus = assay: Antimicrobial activity against Staphylococcus aureus by macro dilution test
Bacillus subtilis = assay: Antimicrobial activity against Bacillus subtilis by macro dilution test
Pseudomonas aeruginosa = assay: Antimicrobial activity against Pseudomonas aeruginosa by macro dilution test
Cryptococcus neoformans = assay: Antimicrobial activity against Cryptococcus neoformans by macro dilution test
Streptococcus pyogenes = assay: Antimicrobial activity against Streptococcus pyogenes by macro dilution test

For `CCCCC/C=C\CC[C@H](O)CCCCCCCC(=O)Oc1ccc2ccc(=O)oc2c1`, which MIC (Salmonella typhimurium) is on record?
Its MIC is 64 µg/mL (≈ 145 µM).

What about the MIC (Escherichia coli) of the same compound?
Its MIC is 32 µg/mL (≈ 72.3 µM).

And the MIC (Candida parapsilosis)?
The MIC was 16 µg/mL (≈ 36.2 µM).

And the MIC (Candida albicans)?
Its MIC is 2 µg/mL (≈ 4.52 µM).

What about the MIC (Pichia kudriavzevii) of the same compound?
Its MIC is 256 µg/mL (≈ 578 µM).

What about the MIC (Staphylococcus aureus) of the same compound?
Its MIC is 32 µg/mL (≈ 72.3 µM).

What about the MIC (Bacillus subtilis) of the same compound?
Its MIC is 64 µg/mL (≈ 145 µM).

What about the MIC (Pseudomonas aeruginosa) of the same compound?
The MIC was 128 µg/mL (≈ 289 µM).

What about the MIC (Cryptococcus neoformans) of the same compound?
Its MIC is 8 µg/mL (≈ 18.1 µM).

What about the MIC (Streptococcus pyogenes) of the same compound?
Its MIC is 32 µg/mL (≈ 72.3 µM).

`CCCCCC[C@@H](O)C/C=C\CCCCCCCC(=O)Oc1ccc2ccc(=O)oc2c1` was tested. Which MIC (Salmonella typhimurium) did it give?
The MIC was 64 µg/mL (≈ 145 µM).

And the MIC (Escherichia coli)?
Its MIC is 64 µg/mL (≈ 145 µM).

And the MIC (Candida parapsilosis)?
The MIC was 16 µg/mL (≈ 36.2 µM).

What about the MIC (Candida albicans) of the same compound?
Its MIC is 4 µg/mL (≈ 9.04 µM).

What about the MIC (Pichia kudriavzevii) of the same compound?
The MIC was 256 µg/mL (≈ 578 µM).

And the MIC (Staphylococcus aureus)?
The MIC was 32 µg/mL (≈ 72.3 µM).

And the MIC (Bacillus subtilis)?
Its MIC is 64 µg/mL (≈ 145 µM).

And the MIC (Pseudomonas aeruginosa)?
The MIC was 128 µg/mL (≈ 289 µM).

And the MIC (Cryptococcus neoformans)?
Its MIC is 16 µg/mL (≈ 36.2 µM).

And the MIC (Streptococcus pyogenes)?
Its MIC is 64 µg/mL (≈ 145 µM).

Which results are given for `CCCCCCCC/C=C\CCCCCCCC(=O)Oc1ccc2ccc(=O)oc2c1`?
MIC (Salmonella typhimurium): 128 µg/mL (≈ 300 µM); MIC (Escherichia coli): 128 µg/mL (≈ 300 µM); MIC (Candida parapsilosis): 64 µg/mL (≈ 150 µM); MIC (Candida albicans): 8 µg/mL (≈ 18.8 µM); MIC (Pichia kudriavzevii): 512 µg/mL (≈ 1200 µM); MIC (Staphylococcus aureus): 128 µg/mL (≈ 300 µM); MIC (Bacillus subtilis): 64 µg/mL (≈ 150 µM); MIC (Pseudomonas aeruginosa): 128 µg/mL (≈ 300 µM); MIC (Cryptococcus neoformans): 32 µg/mL (≈ 75 µM); MIC (Streptococcus pyogenes): 128 µg/mL (≈ 300 µM)

With `C=CCCCCCCCCC(=O)Oc1ccc2ccc(=O)oc2c1` as the compound, how does the MIC (Salmonella typhimurium) read?
Its MIC is 64 µg/mL (≈ 195 µM).

What about the MIC (Escherichia coli) of the same compound?
Its MIC is 128 µg/mL (≈ 390 µM).

And the MIC (Candida parapsilosis)?
Its MIC is 32 µg/mL (≈ 97.4 µM).

And the MIC (Candida albicans)?
The MIC was 4 µg/mL (≈ 12.2 µM).

What about the MIC (Pichia kudriavzevii) of the same compound?
The MIC was 256 µg/mL (≈ 780 µM).

What about the MIC (Staphylococcus aureus) of the same compound?
Its MIC is 128 µg/mL (≈ 390 µM).

And the MIC (Bacillus subtilis)?
The MIC was 64 µg/mL (≈ 195 µM).

What about the MIC (Pseudomonas aeruginosa) of the same compound?
The MIC was 128 µg/mL (≈ 390 µM).

And the MIC (Cryptococcus neoformans)?
Its MIC is 16 µg/mL (≈ 48.7 µM).

And the MIC (Streptococcus pyogenes)?
Its MIC is 64 µg/mL (≈ 195 µM).

Which results are given for `O=C(N[C@H](CO)[C@H](O)c1ccc([N+](=O)[O-])cc1)C(Cl)Cl` [CHLORAMPHENICOL]?
MIC (Salmonella typhimurium): 32 µg/mL (≈ 99 µM); MIC (Escherichia coli): 32 µg/mL (≈ 99 µM); MIC (Staphylococcus aureus): 32 µg/mL (≈ 99 µM); MIC (Bacillus subtilis): 32 µg/mL (≈ 99 µM); MIC (Pseudomonas aeruginosa): 64 µg/mL (≈ 198 µM); MIC (Streptococcus pyogenes): 32 µg/mL (≈ 99 µM)

With `OC(Cn1cncn1)(Cn1cncn1)c1ccc(F)cc1F` [FLUCONAZOLE] as the compound, how does the MIC (Candida parapsilosis) read?
Its MIC is 8 µg/mL (≈ 26.1 µM).

And the MIC (Candida albicans)?
The MIC was 1 µg/mL (≈ 3.27 µM).

What about the MIC (Pichia kudriavzevii) of the same compound?
The MIC was 64 µg/mL (≈ 209 µM).

What about the MIC (Cryptococcus neoformans) of the same compound?
The MIC was 8 µg/mL (≈ 26.1 µM).
